In patent US20260274829A1, “NEW E3 UBIQUITIN LIGASE LIGAND, PROTEIN DEGRADATION AGENT AND USE THEREOF” (GLUETACS THERAPEUTICS (SHANGHAI) CO., LTD., priority 2023, published 2026):

Molecular target: T1, human Cereblon WT GST-tagged protein (Homo sapiens, UniProt Q96SW2)
T1 construct: purchased CISBIO 64BDCRBNPEH
Experiment: CRBN binding, HTRF CEREBLON BINDING kit
Conditions: CRBN binding, HTRF CEREBLON BINDING kit
Summary of the method: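 HTRF competition in which test compounds displace a Thalidomide-Re tracer from GST-tagged human Cereblon WT, detected with a GST Eu antibody. Incubation lasted 3 hours at room temperature, with emission read at 620 and 665 nm. Inhibition rate was derived from 665/620 ratios relative to blank and solvent control wells.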

T1 sequence (Q96SW2 whole entry): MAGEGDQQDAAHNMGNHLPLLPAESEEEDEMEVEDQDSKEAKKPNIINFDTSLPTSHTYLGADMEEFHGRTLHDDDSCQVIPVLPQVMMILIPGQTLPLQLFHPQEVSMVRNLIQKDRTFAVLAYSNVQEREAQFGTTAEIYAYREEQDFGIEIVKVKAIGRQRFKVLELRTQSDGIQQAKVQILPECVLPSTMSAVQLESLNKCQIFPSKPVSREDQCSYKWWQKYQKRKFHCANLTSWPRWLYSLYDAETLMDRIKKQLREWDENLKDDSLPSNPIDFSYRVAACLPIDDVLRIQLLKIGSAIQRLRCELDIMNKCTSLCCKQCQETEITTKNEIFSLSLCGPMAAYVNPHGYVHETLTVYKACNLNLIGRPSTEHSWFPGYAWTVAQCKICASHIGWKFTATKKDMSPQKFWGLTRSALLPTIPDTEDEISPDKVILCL

IC50	SMILES
500 to 1000 nM	CN(Cc1ccnc(N2CCC(=O)NC2=O)c1)C1CCN(c2ccc(-c3cc(F)c4c(c3)C(=O)N(C(C(=O)Nc3nccs3)c3ncn5c3CCC5)C4)cc2)CC1 (stereo not drawn) [GT-07383, 2-(6,7-dihydro-5H-pyrrolo[1,2-c]imidazol-1-yl)-2-(6-(4-(4-(((2-(2,4-dioxotetrahydropyrimidin-1(2H)-yl)pyridin-4-yl)methyl)(methyl)amino)piperidin-1-yl)phenyl)-4-fluoro-1-oxoisoindolin-2-yl)-N-(thiazol-2-yl)acetamide]
< 500 nM	O=C1CCC(c2ccc(CN3CCN(C4CCN(c5ccc(-c6cc(F)c7c(c6)C(=O)N(C(C(=O)Nc6nccs6)c6ncn8c6CCC8)C7)cc5)CC4)CC3)cc2)C(=O)N1 (stereo not drawn) [GT-06243, 2-(6,7-dihydro-5H-pyrrolo[1,2-c]imidazol-1-yl)-2-(6-(4-(4-(4-(4-(2,6-dioxopiperidin-3-yl)benzyl)piperazin-1-yl)piperidin-1-yl)phenyl)-4-fluoro-1-oxoisoindolin-2-yl)-N-(thiazol-2-yl)acetamide]
1000 to 1900 nM	COc1cc(N2CCC(N(C)Cc3ccc(N4CCC(=O)NC4=O)cn3)CC2)ccc1Nc1ncc(Cl)c(Nc2ccccc2P(C)(C)=O)n1 [GT-07617, 1-(6-(((1-(4-((5-chloro-4-((2-(dimethylphosphoryl)phenyl)amino)pyrimidin-2-yl)amino)-3-methoxyphenyl)piperidin-4-yl)(methyl)amino)methyl)pyridin-3-yl)dihydropyrimidine-2,4(1H,3H)-dione]
1000 to 1900 nM	Cc1nc2c(F)cc(-c3nc(Nc4ccc(N5CCC(N6CCN(Cc7cccc(NC8CCC(=O)NC8=O)c7)CC6)CC5)cn4)ncc3F)cc2n1C(C)C (stereo not drawn) [GT-06743, 3-((3-((4-(1-(6-((5-fluoro-4-(4-fluoro-1-isopropyl-2-methyl-1H-benzo[d]imidazol-6-yl)pyrimidin-2-yl)amino)pyridin-3-yl)piperidin-4-yl)piperazin-1-yl)methyl)phenyl)amino)piperidine-2,6-dione]
500 to 1000 nM	O=C1CCN(c2cccc(CN3CCC(n4cc(NC(=O)c5coc(-c6ccnc(NCC7CC7)c6)n5)c(C(F)F)n4)CC3)c2)C(=O)N1 [GT-04965, 2-(2-((cyclopropylmethyl)amino)pyridin-4-yl)-N-(3-(difluoromethyl)-1-(1-(3-(2,4-dioxotetrahydropyrimidin-1(2H)-yl)benzyl)piperidin-4-yl)-1H-pyrazol-4-yl)oxazole-4-carboxamide]
500 to 1000 nM	COc1cc(N2CCC(N3CCN(Cc4cc(C5CCC(=O)NC5=O)cnc4F)CC3)CC2)ccc1Nc1ncc(Cl)c(Nc2ccccc2P(C)(C)=O)n1 (stereo not drawn) [GT-07611, 3-(5-((4-(1-(4-((5-chloro-4-((2-(dimethylphosphoryl)phenyl)amino)pyrimidin-2-yl)amino)-3-methoxyphenyl)piperidin-4-yl)piperazin-1-yl)methyl)-6-fluoropyridin-3-yl)piperidine-2,6-dione]
1000 to 1900 nM	O=C1CCC(Nc2cccc(CN3CCC(n4cc(NC(=O)c5cnn6ccc(N7C[C@H]8C[C@@H]7CO8)nc56)c(C(F)F)n4)CC3)c2)C(=O)N1 (stereo partly drawn) [GT-05052, 5-((1R,4R)-2-oxa-5-azabicyclo[2.2.1]heptan-5-yl)-N-(3-(difluoromethyl)-1-(1-(3-((2,6-dioxopiperidin-3-yl)amino)benzyl)piperidin-4-yl)-1H-pyrazol-4-yl)pyrazolo[1,5-a]pyrimidine-3-carboxamide]
< 500 nM	O=C1CCN(c2cccc(CN3CCN(c4ccc(-c5cc(F)c6c(c5)C(=O)N(C(C(=O)Nc5nccs5)c5ncn7c5CCC7)C6)cc4)CC3)c2)C(=O)N1 (stereo not drawn) [GT-06165, 2-(6,7-dihydro-5H-pyrrolo[1,2-c]imidazol-1-yl)-2-(6-(4-(4-(3-(2,4-dioxotetrahydropyrimidin-1(2H)-yl)benzyl)piperazin-1-yl)phenyl)-4-fluoro-1-oxoisoindolin-2-yl)-N-(thiazol-2-yl)acetamide]
< 500 nM	Nc1nnc(-c2ccccc2O)cc1N1CCN(Cc2ccc(C3CCC(=O)NC3=O)cc2)CC1 (stereo not drawn) [GT-05015, 3-(4-((4-(3-amino-6-(2-hydroxyphenyl)pyridazin-4-yl)piperazin-1-yl)methyl)phenyl)piperidine-2,6-dione]
1000 to 1900 nM	O=C1CCN(c2ccc(CN3CCN(C4CCN(c5ccc(-c6cc(F)c7c(c6)C(=O)N(C(C(=O)Nc6nccs6)c6ncn8c6CCC8)C7)cc5)CC4(F)F)CC3)cc2)C(=O)N1 (stereo not drawn) [GT-06318, 2-(6,7-dihydro-5H-pyrrolo[1,2-c]imidazol-1-yl)-2-(6-(4-(4-(4-(4-(2,4-dioxotetrahydropyrimidin-1(2H)-yl)benzyl)piperazin-1-yl)-3,3-difluoropiperidin-1-yl)phenyl)-4-fluoro-1-oxoisoindolin-2-yl)-N-(thiazol-2-yl)acetamide]
1000 to 1900 nM	COc1cc2nn(C3CCN(Cc4ccc(C5CCC(=O)NC5=O)c(F)c4)CC3)cc2cc1NC(=O)c1cccc(C(F)(F)F)c1 (stereo not drawn) [GT-04748, N-(2-(1-(4-(2,6-dioxopiperidin-3-yl)-3-fluorobenzyl)piperidin-4-yl)-6-methoxy-2H-indazol-5-yl)-3-(trifluoromethyl)benzamide]
500 to 1000 nM	O=C1CCN(c2ccc(CN3CCN(c4ccc(-c5cc(F)c6c(c5)C(=O)N(C(C(=O)Nc5nccs5)c5ncn7c5CCC7)C6)cc4)CC3)cc2)C(=O)N1 (stereo not drawn) [GT-06164, 2-(6,7-dihydro-5H-pyrrolo[1,2-c]imidazol-1-yl)-2-(6-(4-(4-(4-(2,4-dioxotetrahydropyrimidin-1(2H)-yl)benzyl)piperazin-1-yl)phenyl)-4-fluoro-1-oxoisoindolin-2-yl)-N-(thiazol-2-yl)acetamide]
1000 to 1900 nM	CCc1cc2c(cc1N1CCN(Cc3ccc(N4CCC(=O)NC4=O)cn3)CC1)C(C)(C)c1[nH]c3cc(C#N)ccc3c1C2=O [GT-07326, 8-(4-((5-(2,4-dioxotetrahydropyrimidin-1(2H)-yl)pyridin-2-yl)methyl)piperazin-1-yl)-9-ethyl-6,6-dimethyl-11-oxo-6,11-dihydro-5H-benzo[b]carbazole-3-carbonitrile]
500 to 1000 nM	O=C1CCC(c2ccc(CN3C[C@H]4C[C@@H]3CN4c3ccc(-c4cc(F)c5c(c4)C(=O)N(C(C(=O)Nc4nccs4)c4ncn6c4CCC6)C5)cc3)cc2)C(=O)N1 (stereo partly drawn) [GT-06176, 2-(6,7-dihydro-5H-pyrrolo[1,2-c]imidazol-1-yl)-2-(6-(4-((1R,4R)-5-(4-(2,6-dioxopiperidin-3-yl)benzyl)-2,5-diazabicyclo[2.2.1]heptan-2-yl)phenyl)-4-fluoro-1-oxoisoindolin-2-yl)-N-(thiazol-2-yl)acetamide]
500 to 1000 nM	CN(Cc1ccc(C2CCC(=O)NC2=O)cc1)C1CCN(c2ccc(-c3cc(F)c4c(c3)C(=O)N(C(C(=O)Nc3nccs3)c3ncn5c3CCC5)C4)cc2)CC1 (stereo not drawn) [GT-05218, 2-(6,7-dihydro-5H-pyrrolo[1,2-c]imidazol-1-yl)-2-(6-(4-(4-((4-(2,6-dioxopiperidin-3-yl)benzyl)(methyl)amino)piperidin-1-yl)phenyl)-4-fluoro-1-oxoisoindolin-2-yl)-N-(thiazol-2-yl)acetamide]
500 to 1000 nM	CN(C)C(=O)c1cc2cnc(Nc3ccc(N4CCC(N(C)Cc5ccc(C6CCC(=O)NC6=O)cc5)CC4)cn3)nc2n1C1CCCC1 (stereo not drawn) [GT-06490, 7-cyclopentyl-2-((5-(4-((4-(2,6-dioxopiperidin-3-yl)benzyl)(methyl)amino)piperidin-1-yl)pyridin-2-yl)amino)-N,N-dimethyl-7H-pyrrolo[2,3-d]pyrimidine-6-carboxamide]
< 500 nM	O=C1CCN(c2cncc(CN3C[C@H]4C[C@@H]3CN4c3ccc(-c4cc(F)c5c(c4)C(=O)N(C(C(=O)Nc4nccs4)c4ncn6c4CCC6)C5)cc3)c2)C(=O)N1 (stereo partly drawn) [GT-07388, 2-(6,7-dihydro-5H-pyrrolo[1,2-c]imidazol-1-yl)-2-(6-(4-((1R,4R)-5-((5-(2,4-dioxotetrahydropyrimidin-1(2H)-yl)pyridin-3-yl)methyl)-2,5-diazabicyclo[2.2.1]heptan-2-yl)phenyl)-4-fluoro-1-oxoisoindolin-2-yl)-N-(thiazol-2-yl)acetamide]
< 500 nM	O=C1CCN(c2ccc(CN3C[C@H]4C[C@@H]3CN4c3ccc(-c4cc(F)c5c(c4)C(=O)N(C(C(=O)Nc4nccs4)c4ncn6c4CCC6)C5)cc3)cc2)C(=O)N1 (stereo partly drawn) [GT-06177, 2-(6,7-dihydro-5H-pyrrolo[1,2-c]imidazol-1-yl)-2-(6-(4-((1R,4R)-5-(4-(2,4-dioxotetrahydropyrimidin-1(2H)-yl)benzyl)-2,5-diazabicyclo[2.2.1]heptan-2-yl)phenyl)-4-fluoro-1-oxoisoindolin-2-yl)-N-(thiazol-2-yl)acetamide]
500 to 1000 nM	COc1cc2nn(C3CCN(Cc4cccc(NC5CCC(=O)NC5=O)c4)CC3)cc2cc1NC(=O)c1cccc(C(F)(F)F)n1 (stereo not drawn) [GT-04763, N-(2-(1-(3-((2,6-dioxopiperidin-3-yl)amino)benzyl)piperidin-4-yl)-6-methoxy-2H-indazol-5-yl)-6-(trifluoromethyl)picolinamide]
< 500 nM	CCc1cc2c(cc1N1CCN(Cc3cccc(NC4CCC(=O)NC4=O)c3)CC1)C(C)(C)c1[nH]c3cc(C#N)ccc3c1C2=O (stereo not drawn) [GT-07328, 8-(4-(3-((2,6-dioxopiperidin-3-yl)amino)benzyl)piperazin-1-yl)-9-ethyl-6,6-dimethyl-11-oxo-6,11-dihydro-5H-benzo[b]carbazole-3-carbonitrile]

SMILES	IC50
O=C1CCN(c2ccc(CN3C4CCC3CN(c3ccc(-c5cc(F)c6c(c5)C(=O)N(C(C(=O)Nc5nccs5)c5ncn7c5CCC7)C6)cc3)C4)nc2)C(=O)N1 (stereo not drawn) [GT-06255, 2-(6,7-dihydro-5H-pyrrolo[1,2-c]imidazol-1-yl)-2-(6-(4-(8-((5-(2,4-dioxotetrahydropyrimidin-1(2H)-yl)pyridin-2-yl)methyl)-3,8-diazabicyclo[3.2.1]octan-3-yl)phenyl)-4-fluoro-1-oxoisoindolin-2-yl)-N-(thiazol-2-yl)acetamide]	< 500 nM
